Source: PubChem BioAssay AID2060603 (Molecular Pharmacology Branch, DTP, NCI, 2025)

Tested on: 422866-222-R5-J1-PDC spheroid viability
Assay: Anticancer human tumor 422866-222-R5-J1-PDC patient-derived pancreatic adenocarcinoma cell line growth inhibition [CLK]
Settings: spheroids with HUVEC and MSC; for IC50: curve of first compound; for viability, T/C: stronger effect = lower value
In short: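 Multi-cell-type spheroids combined patient-derived tumor cells with HUVEC endothelial cells and human mesenchymal stem cells. Paired agents were dosed in half-log steps down from about clinical Cmax, or from 10 microM where Cmax was unknown.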

[1] = second compound 0.0316 µM, first compound 0.0316 µM
[2] = second compound 0.0316 µM, first compound 0.1 µM
[3] = second compound 0.0316 µM, first compound 0.316 µM
[4] = second compound 0.0316 µM, first compound 1 µM
[5] = second compound 0.0316 µM, first compound 3.16 µM
[6] = second compound 0.0316 µM, first compound 10 µM
[7] = second compound 0.1 µM, first compound 0.0316 µM
[8] = second compound 0.1 µM, first compound 0.1 µM
[9] = second compound 0.1 µM, first compound 0.316 µM
[10] = second compound 0.1 µM, first compound 1 µM
[11] = second compound 0.1 µM, first compound 3.16 µM
[12] = second compound 0.1 µM, first compound 10 µM
[13] = second compound 0.316 µM, first compound 0.0316 µM
[14] = second compound 0.316 µM, first compound 0.1 µM
[15] = second compound 0.316 µM, first compound 0.316 µM
[16] = second compound 0.316 µM, first compound 1 µM
[17] = second compound 0.316 µM, first compound 3.16 µM
[18] = second compound 0.316 µM, first compound 10 µM
[19] = second compound 1 µM, first compound 0.0316 µM
[20] = second compound 1 µM, first compound 0.1 µM
[21] = second compound 1 µM, first compound 0.316 µM
[22] = second compound 1 µM, first compound 1 µM
[23] = second compound 1 µM, first compound 3.16 µM
[24] = second compound 1 µM, first compound 10 µM
[25] = second compound 3.16 µM, first compound 0.0316 µM
[26] = second compound 3.16 µM, first compound 0.1 µM
[27] = second compound 3.16 µM, first compound 0.316 µM
[28] = second compound 3.16 µM, first compound 1 µM
[29] = second compound 3.16 µM, first compound 3.16 µM
[30] = second compound 3.16 µM, first compound 10 µM
[31] = second compound 10 µM, first compound 0.0316 µM
[32] = second compound 10 µM, first compound 0.1 µM
[33] = second compound 10 µM, first compound 0.316 µM
[34] = second compound 10 µM, first compound 1 µM
[35] = second compound 10 µM, first compound 3.16 µM
[36] = second compound 10 µM, first compound 10 µM
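Note: spheroids exposed to agents for seven days before readout.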

With `C#Cc1c(F)ccc2cc(O)cc(-c3ncc4c(N5CC6CCC(C5)N6)nc(OCC56CCCN5CC(F)C6)nc4c3F)c12` (stereo unspecified) + CN1CCN(c2cc(C(=O)Nc3cc4cc(-c5cnn(C)c5)ccc4cn3)ccn2)CC1 the IC50 (second compound 0.0316 µM) was 1.54 µM, the IC50 (second compound 0.1 µM) was 1.78 µM and the IC50 (second compound 0.316 µM) was 1.2 µM. For the same molecule, the IC50 (second compound 1 µM) was < 0.0316 µM, the IC50 (second compound 3.16 µM) was < 0.0316 µM and the IC50 (second compound 10 µM) was < 0.0316 µM. The viability, T/C [1] was 99.1%, the viability, T/C [2] was 100% and the viability, T/C [3] was 70.7%. It also gave a viability, T/C [4] of 60.9%, a viability, T/C [5] of 37.4% and a viability, T/C [6] of 33.9%. The viability, T/C [7] was 100%, the viability, T/C [8] was 113% and the viability, T/C [9] was 74.7%. For the same molecule, the viability, T/C [10] was 60.5%, the viability, T/C [11] was 45.3% and the viability, T/C [12] was 33.4%. It also gave a viability, T/C [13] of 105%, a viability, T/C [14] of 83.4% and a viability, T/C [15] of 68.4%. For the same molecule, the viability, T/C [16] was 50.5%, the viability, T/C [17] was 41.4% and the viability, T/C [18] was 26.8%. For the same molecule, the viability, T/C [19] was 35.7%, the viability, T/C [20] was 35.1% and the viability, T/C [21] was 38%. The viability, T/C [22] was 27.2%, the viability, T/C [23] was 24.3% and the viability, T/C [24] was 19%. For the same molecule, the viability, T/C [25] was 11.2%, the viability, T/C [26] was 11.9% and the viability, T/C [27] was 7.84%. It also gave a viability, T/C [28] of 7.25%, a viability, T/C [29] of 5.39% and a viability, T/C [30] of 7.56%. For the same molecule, the viability, T/C [31] was 5.16%, the viability, T/C [32] was 2.81% and the viability, T/C [33] was 1.05%. For the same molecule, the viability, T/C [34] was 1.26%, the viability, T/C [35] was 1.28% and the viability, T/C [36] was 4.84%.

In the case of `CC(CO)NC(=O)c1cc(-c2ccc(Cl)cc2)nn(-c2cnn(C)c2)c1=O` (stereo unspecified) + CN1CCN(c2cc(C(=O)Nc3cc4cc(-c5cnn(C)c5)ccc4cn3)ccn2)CC1, the IC50 (second compound 0.0316 µM) is reported as > 10 µM, the IC50 (second compound 0.1 µM) is reported as > 10 µM and the IC50 (second compound 0.316 µM) is reported as > 10 µM. The IC50 (second compound 1 µM) was < 0.0316 µM, the IC50 (second compound 3.16 µM) was < 0.0316 µM and the IC50 (second compound 10 µM) was < 0.0316 µM. For the same molecule, the viability, T/C [1] was 115%, the viability, T/C [2] was 104% and the viability, T/C [3] was 106%. The viability, T/C [4] was 135%, the viability, T/C [5] was 106% and the viability, T/C [6] was 75.7%. It also gave a viability, T/C [7] of 115%, a viability, T/C [8] of 118% and a viability, T/C [9] of 104%. The viability, T/C [10] was 116%, the viability, T/C [11] was 104% and the viability, T/C [12] was 82.6%. The viability, T/C [13] was 107%, the viability, T/C [14] was 93.5% and the viability, T/C [15] was 86.9%. For the same molecule, the viability, T/C [16] was 88.7%, the viability, T/C [17] was 80.8% and the viability, T/C [18] was 68.8%. The viability, T/C [19] was 30.9%, the viability, T/C [20] was 27.6% and the viability, T/C [21] was 31.6%. The viability, T/C [22] was 31.1%, the viability, T/C [23] was 31.3% and the viability, T/C [24] was 32%. For the same molecule, the viability, T/C [25] was 13.1%, the viability, T/C [26] was 13.4% and the viability, T/C [27] was 12.1%. The viability, T/C [28] was 12%, the viability, T/C [29] was 11.5% and the viability, T/C [30] was 13.6%. It also gave a viability, T/C [31] of 2.51%, a viability, T/C [32] of 3.09% and a viability, T/C [33] of 1.44%. It also gave a viability, T/C [34] of 2.25%, a viability, T/C [35] of 3.26% and a viability, T/C [36] of 1.54%.

Molecule `COc1c(OCCCN2CCOCC2)ccc2c3n(c(=NC(=O)c4cnc(N)nc4)nc12)CCN3` + CN1CCN(c2cc(C(=O)Nc3cc4cc(-c5cnn(C)c5)ccc4cn3)ccn2)CC1 has an IC50 (second compound 0.0316 µM) of 0.022 µM, an IC50 (second compound 0.1 µM) of 0.0263 µM and an IC50 (second compound 0.316 µM) of 0.0226 µM. The IC50 (second compound 1 µM) was < 0.00316 µM, the IC50 (second compound 3.16 µM) was < 0.00316 µM and the IC50 (second compound 10 µM) was < 0.00316 µM. The viability, T/C (second compound 0.0316 µM, first compound 0.00316 µM) was 99.3%, the viability, T/C (second compound 0.0316 µM, first compound 0.01 µM) was 65.7% and the viability, T/C [1] was 43.5%. The viability, T/C [2] was 33.2%, the viability, T/C [3] was 28.9% and the viability, T/C [4] was 33.4%. It also gave a viability, T/C (second compound 0.1 µM, first compound 0.00316 µM) of 92.2%, a viability, T/C (second compound 0.1 µM, first compound 0.01 µM) of 73.2% and a viability, T/C [7] of 46.9%. For the same molecule, the viability, T/C [8] was 31.6%, the viability, T/C [9] was 32.2% and the viability, T/C [10] was 34.5%. It also gave a viability, T/C (second compound 0.316 µM, first compound 0.00316 µM) of 92.8%, a viability, T/C (second compound 0.316 µM, first compound 0.01 µM) of 63% and a viability, T/C [13] of 46.1%. The viability, T/C [14] was 35.5%, the viability, T/C [15] was 30.3% and the viability, T/C [16] was 37.6%. The viability, T/C (second compound 1 µM, first compound 0.00316 µM) was 33.7%, the viability, T/C (second compound 1 µM, first compound 0.01 µM) was 33.4% and the viability, T/C [19] was 21.6%. It also gave a viability, T/C [20] of 25.6%, a viability, T/C [21] of 18% and a viability, T/C [22] of 23.8%. It also gave a viability, T/C (second compound 3.16 µM, first compound 0.00316 µM) of 9.85%, a viability, T/C (second compound 3.16 µM, first compound 0.01 µM) of 13.6% and a viability, T/C [25] of 11.9%. For the same molecule, the viability, T/C [26] was 10.2%, the viability, T/C [27] was 10.4% and the viability, T/C [28] was 9.8%. For the same molecule, the viability, T/C (second compound 10 µM, first compound 0.00316 µM) was 3.74%, the viability, T/C (second compound 10 µM, first compound 0.01 µM) was 4.24% and the viability, T/C [31] was 3.81%. It also gave a viability, T/C [32] of 1.77%, a viability, T/C [33] of 5.18% and a viability, T/C [34] of 3.72%.
